According to patent EP1444982A1, “The use of purine derivatives as selective kinase inhibitors” (MERCKLE GMBH, priority 2003, dated 2004):

How the values were obtained:
Assay type in all cases: biochemical
[1] = molecular target: MAPK2 (h) (Homo sapiens, UniProt P28482); test: Kinase inhibition assay: MAPK2; conditions: 30µM Testsubstanz (100 µM ATP); read-out: Hemmung von Kinasen in % MAPK2 (h)
Description: (§1) Alle Kinasen werden auf zehnfache Arbeitskonzentration vor Anwendung in dem Essay verdünnt. Die Zusammensetzung des Verdünnungspuffers ist für jede Kinase in der nachfolgenden Tabelle angegeben.
(§2) Alle Substrate werden gelöst und auf eine Stammlösung in entsalztem Wasser verdünnt.

[2] = molecular target: GSK3β (h) (Homo sapiens, UniProt P49841); test: Kinase inhibition assay (33P-ATP, P30 filter, scintillation counting): GSK3β; conditions: 30µM Testsubstanz (100 µM ATP); read-out: Hemmung von Kinasen in % GSK3β (h)
GSK3β (h), sequence (P49841 whole entry): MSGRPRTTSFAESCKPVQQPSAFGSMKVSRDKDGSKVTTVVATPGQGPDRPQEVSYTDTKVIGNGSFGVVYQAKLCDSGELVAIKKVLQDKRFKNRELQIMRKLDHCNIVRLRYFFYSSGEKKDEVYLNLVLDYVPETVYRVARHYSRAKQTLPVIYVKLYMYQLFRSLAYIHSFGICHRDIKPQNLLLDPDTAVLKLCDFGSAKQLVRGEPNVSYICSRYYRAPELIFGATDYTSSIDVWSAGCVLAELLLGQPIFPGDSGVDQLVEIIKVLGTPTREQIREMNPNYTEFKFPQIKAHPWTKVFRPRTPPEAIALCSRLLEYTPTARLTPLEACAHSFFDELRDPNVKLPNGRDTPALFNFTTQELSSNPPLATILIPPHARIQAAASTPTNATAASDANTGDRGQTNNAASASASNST
Experimental: as §1, §2
GSK3β (h)(5-10mU) in einem Endreaktionsvolumen von 25 µl wird mit 8 mM MOPS pH 7.0, 0.2 mM EDTA, 20 µM […](p) EDEEE (phospho GS2 Peptid), 10 mM MgAcetat und [γ-^33P-ATP] inkubiert (spezifische Aktivität etwa 500 cpm/pmol, Konzentration wie erforderlich). Die Reaktion wird durch Zugabe von Mg^2+[γ-^33P-ATP] initiiert. Nach 40-minütiger Inkubation bei Raumtemperatur wird die Reaktion durch Zugabe von 5 µl einer 3 %igen Phosphorsäurelösung gestoppt. 10 µl der Reaktion werden dann auf ein P30-Filter gegeben und dreimal jeweils 5 Minuten in 50 mM Phosphorsäure und einmal in Methanol gewaschen. Anschließend wird getrocknet und eine Szintillationszählung durchgeführt.

[3] = molecular target: Lck (h) (Homo sapiens, UniProt P06239); test: Kinase inhibition assay (33P-ATP, P30 filter, scintillation counting): Lck; conditions: 30µM Testsubstanz (100 µM ATP); read-out: Hemmung von Kinasen in % Lck (h)
Lck (h), sequence (P06239 whole entry): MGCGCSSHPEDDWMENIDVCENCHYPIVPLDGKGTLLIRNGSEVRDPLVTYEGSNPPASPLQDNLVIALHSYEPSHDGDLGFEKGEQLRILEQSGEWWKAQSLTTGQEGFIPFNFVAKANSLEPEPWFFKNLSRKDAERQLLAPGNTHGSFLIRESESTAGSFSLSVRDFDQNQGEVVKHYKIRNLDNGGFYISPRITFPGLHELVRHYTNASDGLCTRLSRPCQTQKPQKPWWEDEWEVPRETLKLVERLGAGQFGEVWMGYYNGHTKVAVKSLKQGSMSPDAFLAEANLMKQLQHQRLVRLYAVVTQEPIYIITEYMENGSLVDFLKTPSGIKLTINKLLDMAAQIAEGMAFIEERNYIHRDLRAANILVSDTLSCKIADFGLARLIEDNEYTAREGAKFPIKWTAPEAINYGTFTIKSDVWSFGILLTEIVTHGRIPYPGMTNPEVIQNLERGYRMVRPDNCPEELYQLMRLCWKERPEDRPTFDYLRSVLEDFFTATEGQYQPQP
Experimental: as §1, §2
(§3) Lck (h)(5-10 mU) in einem Endreaktionsvolumen von 25 µl wird mit 50 mM Tris pH 7.5, 0.1 mM EGTA, 0.1 mM NaVanadate, 250 µM KVEKIGEGTYGVVYK (Cdc2 Peptid), 10 mM MgAcetat und [γ-^33P-ATP] inkubiert (spezifische Aktivität etwa 500 cpm/pmol, Konzentration wie erforderlich). Die Reaktion wird durch Zugabe von Mg^2+[γ-^33P-ATP] initiiert. Nach 40-minütiger Inkubation bei Raumtemperatur wird die Reaktion durch Zugabe von 5 µl einer 3 %igen Phosphorsäurelösung gestoppt. 10 µl der Reaktion werden dann auf ein P30-Filter gegeben und dreimal jeweils 5 Minuten in 50 mM Phosphorsäure und einmal in Methanol gewaschen. Anschließend wird getrocknet und eine Szintillationszählung durchgeführt.

[4] = molecular target: PKB (h) (Homo sapiens, UniProt P31749); test: Kinase inhibition assay (33P-ATP, P30 filter, scintillation counting): PKB; conditions: 40 min; 30µM Testsubstanz (100 µM ATP); read-out: Hemmung von Kinasen in % PKB (h)
PKB (h), sequence (P31749 whole entry): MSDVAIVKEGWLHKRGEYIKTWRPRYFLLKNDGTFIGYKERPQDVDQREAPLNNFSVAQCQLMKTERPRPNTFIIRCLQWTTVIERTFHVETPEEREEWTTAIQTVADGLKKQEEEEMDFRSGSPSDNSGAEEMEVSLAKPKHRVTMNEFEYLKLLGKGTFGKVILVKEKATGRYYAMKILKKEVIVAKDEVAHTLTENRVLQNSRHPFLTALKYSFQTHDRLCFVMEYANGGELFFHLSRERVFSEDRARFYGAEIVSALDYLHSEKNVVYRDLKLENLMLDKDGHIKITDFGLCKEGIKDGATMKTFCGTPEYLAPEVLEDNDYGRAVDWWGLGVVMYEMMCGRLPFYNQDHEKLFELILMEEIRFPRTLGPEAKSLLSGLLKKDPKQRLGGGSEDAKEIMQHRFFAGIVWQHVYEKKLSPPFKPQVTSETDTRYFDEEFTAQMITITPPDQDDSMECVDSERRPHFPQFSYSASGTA
Experimental: as §1, §2
PKBα (h)(5-10mU) wird in einem Endreaktionsvolumen von 25 µl mit 8 mM MOPS pH 7.0, 0.2 mM EDTRA, 30 µM GRPRTSSFAEGKK, 10 mM MgAcetat und [γ-^33P-ATP] inkubiert (spezifische Aktivität etwa 50 cpm/pmol, Konzentration wie erforderlich). Die Reaktion wird durch Zugabe von Mg^2+[γ-^33P-ATP] initiiert. Nach 40-minütiger Inkubation bei Raumtemperatur wird die Reaktion durch Zugabe von 5 µl einer 3 %igen Phosphorsäurelösung gestoppt. 10 µl der Reaktion werden dann auf ein P30-Filter gegeben und dreimal jeweils 5 Minuten in 50 mM Phosphorsäure und einmal in Methanol gewaschen. Anschließend wird getrocknet und eine Szintillationszählung durchgeführt.

[5] = molecular target: MEK1 (h) (Homo sapiens, UniProt Q02750); test: Kinase inhibition assay: MEK1 (coupled to MAPK2 assay); conditions: 30µM Testsubstanz (100 µM ATP); read-out: Hemmung von Kinasen in % MEK1 (h)
MEK1 (h), sequence (Q02750 whole entry): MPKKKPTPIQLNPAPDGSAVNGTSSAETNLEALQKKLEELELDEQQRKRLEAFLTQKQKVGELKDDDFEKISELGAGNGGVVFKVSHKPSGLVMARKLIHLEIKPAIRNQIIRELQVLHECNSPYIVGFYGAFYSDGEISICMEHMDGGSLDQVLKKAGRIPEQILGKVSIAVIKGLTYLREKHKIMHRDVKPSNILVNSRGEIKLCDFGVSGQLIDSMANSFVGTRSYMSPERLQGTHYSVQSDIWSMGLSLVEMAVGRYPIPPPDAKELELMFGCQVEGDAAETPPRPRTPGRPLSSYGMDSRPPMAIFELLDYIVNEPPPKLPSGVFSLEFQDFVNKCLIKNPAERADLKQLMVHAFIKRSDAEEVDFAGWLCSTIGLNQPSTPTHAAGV
Experimental: as §1, §2
MEK1 (h)(1-5 mU) in einem Endreaktionsvolumen von 25 µl wird mit 50 mM Tris pH 7.5, 0.2 mM EGTA, 0.1 % b-Mercaptoethanol, 0,01 % Brij-35, 1 µM inaktives MAPK2 (m), 10 mM MgAcetat und kaltem ATP inkubiert (Konzentration wie erforderlich). Die Reaktion wird durch Zugabe von MgATB initiiert. Nach 40-minütiger Inkubation bei Raumtemperatur werden […] dieses Inkubationsgemisches dazu verwendet, den oben beschriebenen MAPK2-Assay zu initiieren.

[6] = molecular target: MAPK1 (h) (Homo sapiens, UniProt P27361); test: Kinase inhibition assay: MAPK1; conditions: 30µM Testsubstanz (100 µM ATP); read-out: Hemmung von Kinasen in % MAPK1 (h)
MAPK1 (h), sequence (P27361 whole entry): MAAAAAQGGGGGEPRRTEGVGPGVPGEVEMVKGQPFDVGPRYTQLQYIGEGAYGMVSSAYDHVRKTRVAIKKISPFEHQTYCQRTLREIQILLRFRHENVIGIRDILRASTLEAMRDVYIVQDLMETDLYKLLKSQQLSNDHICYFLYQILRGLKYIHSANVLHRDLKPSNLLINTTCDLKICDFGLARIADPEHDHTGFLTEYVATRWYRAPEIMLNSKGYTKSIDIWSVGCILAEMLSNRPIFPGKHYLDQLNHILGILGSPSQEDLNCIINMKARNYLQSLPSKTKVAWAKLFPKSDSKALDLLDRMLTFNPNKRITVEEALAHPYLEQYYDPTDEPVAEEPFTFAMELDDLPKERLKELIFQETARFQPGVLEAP
Description: as §1, §2

[7] = molecular target: JNK3 (r) (Rattus norvegicus, UniProt P49187); test: Kinase inhibition assay: JNK3; conditions: 30µM Testsubstanz (100 µM ATP); read-out: Hemmung von Kinasen in % JNK3 (r)
JNK3 (r), sequence (P49187 whole entry): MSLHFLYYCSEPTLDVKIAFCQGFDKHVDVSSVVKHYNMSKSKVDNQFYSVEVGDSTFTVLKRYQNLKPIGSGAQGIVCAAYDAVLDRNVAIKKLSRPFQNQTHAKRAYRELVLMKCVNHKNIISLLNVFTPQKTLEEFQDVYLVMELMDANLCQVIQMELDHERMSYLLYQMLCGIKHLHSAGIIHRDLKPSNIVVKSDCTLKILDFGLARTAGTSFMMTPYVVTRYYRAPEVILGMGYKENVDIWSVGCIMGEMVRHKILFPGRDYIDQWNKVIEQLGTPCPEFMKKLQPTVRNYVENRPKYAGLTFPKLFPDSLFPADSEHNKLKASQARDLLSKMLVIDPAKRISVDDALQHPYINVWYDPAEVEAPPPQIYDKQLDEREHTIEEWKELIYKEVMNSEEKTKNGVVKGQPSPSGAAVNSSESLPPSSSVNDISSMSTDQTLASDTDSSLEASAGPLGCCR
Description: as §1, §2

[8] = system: ROCKII (h); test: Kinase inhibition assay (33P-ATP, P30 filter, scintillation counting): ROCK-II; conditions: 30µM Testsubstanz (100 µM ATP); 40 min
[9] = system: PKA (h); test: Kinase inhibition assay (33P-ATP, P30 filter, scintillation counting): PKA; conditions: 30µM Testsubstanz (100 µM ATP); 40 min
[10] = molecular target: SAPK2a (h) (Homo sapiens, UniProt Q16539); test: Kinase inhibition assay (33P-ATP, P30 filter, scintillation counting): SAPK2a; conditions: 30µM Testsubstanz (100 µM ATP); read-out: Hemmung von Kinasen in % SAPK2a (h)
SAPK2a (h), sequence (Q16539 whole entry): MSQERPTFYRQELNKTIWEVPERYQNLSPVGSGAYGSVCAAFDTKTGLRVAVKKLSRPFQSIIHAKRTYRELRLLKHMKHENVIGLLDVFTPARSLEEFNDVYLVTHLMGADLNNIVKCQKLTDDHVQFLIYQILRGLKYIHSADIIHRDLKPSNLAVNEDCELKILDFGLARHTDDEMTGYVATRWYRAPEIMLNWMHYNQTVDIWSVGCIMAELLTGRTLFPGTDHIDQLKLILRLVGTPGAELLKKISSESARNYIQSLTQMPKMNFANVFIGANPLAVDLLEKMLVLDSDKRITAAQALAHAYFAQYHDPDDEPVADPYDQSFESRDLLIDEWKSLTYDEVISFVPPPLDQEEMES
Experimental: as §1, §2
as §3, with “SAPK2a (h) wird in” for “Lck (h)(5-10 mU) in”, “µl” for “µl wird”, “mit 25” for “mit 50”, “pH 7,5, 0.02” for “pH 7.5, 0.1”, “EGTA, 0.33 mg/ml Myelin-Basisprotein,” for “EGTA, 0.1 mM NaVanadate, 250 µM KVEKIGEGTYGVVYK (Cdc2 Peptid),”, “etwa 50” for “etwa 500”

[11] = molecular target: c-RAF (h) (Homo sapiens, UniProt P04049); test: Kinase inhibition assay (33P-ATP, P30 filter, scintillation counting): c-RAF; conditions: 40 min; 30µM Testsubstanz (100 µM ATP); read-out: Hemmung von Kinasen in % c-RAF (h)
c-RAF (h), sequence (P04049 whole entry): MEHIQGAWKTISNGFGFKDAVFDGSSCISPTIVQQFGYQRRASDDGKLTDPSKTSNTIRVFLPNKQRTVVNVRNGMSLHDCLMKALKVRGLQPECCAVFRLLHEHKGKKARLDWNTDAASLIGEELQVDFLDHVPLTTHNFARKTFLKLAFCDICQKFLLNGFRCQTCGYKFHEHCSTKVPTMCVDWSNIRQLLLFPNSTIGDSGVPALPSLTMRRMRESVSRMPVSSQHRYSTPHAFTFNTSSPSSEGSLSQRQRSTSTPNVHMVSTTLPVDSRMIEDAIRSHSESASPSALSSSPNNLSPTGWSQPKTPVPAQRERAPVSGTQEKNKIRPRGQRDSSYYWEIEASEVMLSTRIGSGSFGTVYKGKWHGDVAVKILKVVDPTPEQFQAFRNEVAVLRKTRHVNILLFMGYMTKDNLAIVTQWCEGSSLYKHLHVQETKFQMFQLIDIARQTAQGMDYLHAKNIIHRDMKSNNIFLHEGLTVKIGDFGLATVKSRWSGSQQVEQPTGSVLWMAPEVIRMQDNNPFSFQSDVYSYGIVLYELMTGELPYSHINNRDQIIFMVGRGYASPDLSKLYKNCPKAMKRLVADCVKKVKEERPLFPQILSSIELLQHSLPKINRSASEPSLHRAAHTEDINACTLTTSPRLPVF
Experimental: as §1, §2
as §3, with “c-RAF (ha)(5-10 mU)” for “Lck (h)(5-10 mU)”, “mit 25” for “mit 50”, “pH 7.5,.0.02” for “pH 7.5, 0.1”, “EGTA, 0.66 mg/ml Myelin-Basisprotein,” for “EGTA, 0.1 mM NaVanadate, 250 µM KVEKIGEGTYGVVYK (Cdc2 Peptid),”, “etwa 50” for “etwa 500”

MAPK2 (h), sequence (P28482 whole entry): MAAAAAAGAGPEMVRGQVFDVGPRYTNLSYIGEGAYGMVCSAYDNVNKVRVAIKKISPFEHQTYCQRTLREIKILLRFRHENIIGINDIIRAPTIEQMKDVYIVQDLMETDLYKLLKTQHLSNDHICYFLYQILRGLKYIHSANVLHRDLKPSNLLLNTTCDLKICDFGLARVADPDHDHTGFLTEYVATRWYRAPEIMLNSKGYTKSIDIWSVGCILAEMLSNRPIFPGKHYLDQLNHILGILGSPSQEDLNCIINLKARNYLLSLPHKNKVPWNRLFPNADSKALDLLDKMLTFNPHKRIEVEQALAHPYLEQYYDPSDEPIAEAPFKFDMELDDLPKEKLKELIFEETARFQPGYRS

Row | SMILES | inhibition at 30 µM [1] | inhibition at 30 µM [2] | inhibition at 30 µM [3] | inhibition at 30 µM [4] | inhibition at 30 µM [5] | inhibition at 30 µM [6] | inhibition at 30 µM [7] | Hemmung von Kinasen in % ROCKII (h) [8] | Hemmung von Kinasen in % PKA (h) [9] | inhibition at 30 µM [10] | inhibition at 30 µM [11]
1 | c1ccc(Nc2ncnc3[nH]cnc23)cc1 [Verbd. 1, Phenyl-(9H-purin-6-yl)-amin] | 33% | 13% | 39% | 14% | 19% | 22% | 11% | 48% | 32% | 34% | 19%
2 | Fc1ccc(Nc2ncnc3[nH]cnc23)cc1 [Verbd. 2, (4-Fluoro-phenyl)-(9H-purin-6-yl)-amin] | 48% | 13% | 42% | 18% | 34% | 33% | 10% | 52% | 40% | 30% | 24%
3 | c1ccc(CSc2ncnc3[nH]cnc23)cc1 [Verbd. 9, 6-Benzylsulfanyl-9H-purin] | 12% | 35% | 22% | 4% | 7% | 15% | 7% | 28% | 13% | 50% | 53%
4 | Fc1ccc(CSc2ncnc3[nH]cnc23)cc1 [Verbd. 10, 6-(4-Fluoro-benzylsulfanyl)-9H-purin] | 5% | 0% | 16% | 6% | 0% | 9% | 12% | 18% |  | 29% | 47%
5 | Cn1cnc2c(Nc3ccccc3)ncnc21 [Verbd. 13, (9-Methyl-9H-purin-6-yl)-phenyl-amin] | 42% | 26% | 18% | 0% | 4% | 16% | 5% | 0% | 0% | 0% | 44%
6 | Cn1cnc2c(Nc3ccc(F)cc3)ncnc21 [Verbd. 14, (4-Fluoro-phenyl)-(9-methyl-9H-purin-6-yl)-amin] | 57% | 14% | 9% | 0% | 8% | 36% | 19% | 7% | 0% | 13% | 27%
7 | c1ccc(Sc2ncnc3[nH]cnc23)cc1 [Verbd. 15, 6-Phenylsulfanyl-9H-purin] | 13% | 1% | 5% | 0% | 0% | 3% | 0% | 33% | 8% | 54% | 6%
8 | Fc1ccc(Sc2ncnc3[nH]cnc23)cc1 [Verbd. 16, 6-(4-Fluoro-phenylsulfanyl)-9H-purin] | 12% | 0% | 13% | 0% | 2% | 2% | 8% | 37% | 10% | 72% | 29%
